Consider three molecules from US10040804B2, “Compounds targeting proteins, compositions, methods, and uses thereof” (BioTheryX, Inc., priority 2016, dated 2018).

SMILES strings stand for the structures.

For one test, the system named is MDA-MB-231 cells. Briefly: MDA-MB-231 cell viability (CellTiter-Glo). Format: cell-based. The note with it: Homo sapiens, 72 h, 3 days, DMSO = 100.00; for viability at 1 µM: 1 μM compound concentration; for viability at 10 µM: 10 μM compound concentration. The method, boiled down:
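Cells in DMEM with 10% FBS, seeded at 10,000 per well, exposed to compound (0.1% DMSO control) for 3 days at 37° C, 5% CO2. Viability read by CellTiter-Glo luminescence after 10 min shaking.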

A further test deals with Molm-13 cells. Briefly: Molm-13 cell viability (CellTiter-Glo). The note with it: Homo sapiens, MOLM-13, read-out: % Inhibition (MOLM-13 Cell Viability). It is filed as cell-based. The method, boiled down: (§1)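 Molm-13 (RPMI-1640, 10% FBS) and H1048 (DMEM:F12, 5% FBS with supplements) plated at 20,000 cells/well, treated with compound or 0.1% DMSO for 3 days at 37° C., 5% CO2. Viability read by CellTiter-Glo luminescence after 10 min.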

In another test the test system is IL-1β. Description: IL-1β expression in LPS stimulated PBMCs (Meso Scale). It is filed as cell-based, human. The note with it: Homo sapiens, PBMC, compound concentration 1 μM. The method, boiled down:
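Human PBMCs (200,000 cells/well in RPMI-1640/10% FBS) were pretreated with compound for 1 h, then stimulated with 100 ng/mL LPS for 18-24 h. IL-1β in supernatant was measured by Meso Scale assay. Activity is expressed as percentage of LPS-induced level, with DMSO-treated wells as negative control.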

Another test relates to IL-6. Description: IL-6 expression in LPS stimulated PBMCs (Meso Scale). The note with it: Homo sapiens, PBMC; compound concentration 1 μM; LPS-stimulated PBMCs. It is filed as cell-based, human. The method, boiled down: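 Thawed human PBMCs at 200,000 cells/well in RPMI-1640/10% FBS were pretreated with compound or DMSO for 1 h, then stimulated with 100 ng/mL LPS for 18–24 h. Supernatant IL-6 was measured by Meso Scale assay and expressed as % of LPS-induced activity.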

Another test concerns TNF-α. Description: TNF-α expression in LPS stimulated PBMCs (Meso Scale). Format: cell-based, human. The note with it: Homo sapiens, PBMC, compound concentration 1 μM. The method, boiled down:
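Thawed primary human PBMCs, 200,000 cells/well in RPMI-1640/10% FBS, pretreated with compound 1 h, then stimulated with 100 ng/mL LPS for 18-24 h. Supernatant TNF-α measured by Meso Scale assay; activity expressed as percentage of LPS-induced level, DMSO as negative control.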

For a further test, the target named is T1, GSPT1 (Homo sapiens, UniProt P15170).
T1 construct: Whole cell extracts were prepared using RIPA buffer according to manufacturer's protocol (Pierce); endogenous in cells
T1 sequence (P15170 whole entry): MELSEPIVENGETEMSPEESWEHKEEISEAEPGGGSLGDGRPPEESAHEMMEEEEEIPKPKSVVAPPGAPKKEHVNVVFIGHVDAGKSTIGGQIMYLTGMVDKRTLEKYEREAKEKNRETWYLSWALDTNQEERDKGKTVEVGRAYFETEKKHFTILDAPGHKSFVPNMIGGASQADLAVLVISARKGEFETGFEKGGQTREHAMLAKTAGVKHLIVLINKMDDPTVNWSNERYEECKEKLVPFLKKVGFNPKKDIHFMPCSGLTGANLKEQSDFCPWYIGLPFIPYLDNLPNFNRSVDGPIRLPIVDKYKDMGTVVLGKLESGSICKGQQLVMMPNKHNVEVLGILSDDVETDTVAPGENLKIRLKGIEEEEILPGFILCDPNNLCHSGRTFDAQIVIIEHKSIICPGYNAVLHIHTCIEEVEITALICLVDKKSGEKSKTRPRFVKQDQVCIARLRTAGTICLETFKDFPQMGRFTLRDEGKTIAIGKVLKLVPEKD
T1 sequence (Q96SW2 whole entry, further chain): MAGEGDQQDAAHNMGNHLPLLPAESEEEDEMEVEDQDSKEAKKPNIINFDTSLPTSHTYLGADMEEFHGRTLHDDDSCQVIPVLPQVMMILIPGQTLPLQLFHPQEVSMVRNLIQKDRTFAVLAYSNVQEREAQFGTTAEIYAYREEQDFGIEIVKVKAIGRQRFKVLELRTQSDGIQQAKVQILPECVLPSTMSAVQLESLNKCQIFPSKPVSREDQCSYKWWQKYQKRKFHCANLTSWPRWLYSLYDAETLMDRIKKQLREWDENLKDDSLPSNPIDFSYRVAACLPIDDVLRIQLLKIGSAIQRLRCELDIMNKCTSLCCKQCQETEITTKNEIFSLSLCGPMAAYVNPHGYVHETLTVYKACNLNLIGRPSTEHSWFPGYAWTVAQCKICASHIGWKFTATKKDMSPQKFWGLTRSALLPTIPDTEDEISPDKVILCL
T1 sequence (Q16531 whole entry partner): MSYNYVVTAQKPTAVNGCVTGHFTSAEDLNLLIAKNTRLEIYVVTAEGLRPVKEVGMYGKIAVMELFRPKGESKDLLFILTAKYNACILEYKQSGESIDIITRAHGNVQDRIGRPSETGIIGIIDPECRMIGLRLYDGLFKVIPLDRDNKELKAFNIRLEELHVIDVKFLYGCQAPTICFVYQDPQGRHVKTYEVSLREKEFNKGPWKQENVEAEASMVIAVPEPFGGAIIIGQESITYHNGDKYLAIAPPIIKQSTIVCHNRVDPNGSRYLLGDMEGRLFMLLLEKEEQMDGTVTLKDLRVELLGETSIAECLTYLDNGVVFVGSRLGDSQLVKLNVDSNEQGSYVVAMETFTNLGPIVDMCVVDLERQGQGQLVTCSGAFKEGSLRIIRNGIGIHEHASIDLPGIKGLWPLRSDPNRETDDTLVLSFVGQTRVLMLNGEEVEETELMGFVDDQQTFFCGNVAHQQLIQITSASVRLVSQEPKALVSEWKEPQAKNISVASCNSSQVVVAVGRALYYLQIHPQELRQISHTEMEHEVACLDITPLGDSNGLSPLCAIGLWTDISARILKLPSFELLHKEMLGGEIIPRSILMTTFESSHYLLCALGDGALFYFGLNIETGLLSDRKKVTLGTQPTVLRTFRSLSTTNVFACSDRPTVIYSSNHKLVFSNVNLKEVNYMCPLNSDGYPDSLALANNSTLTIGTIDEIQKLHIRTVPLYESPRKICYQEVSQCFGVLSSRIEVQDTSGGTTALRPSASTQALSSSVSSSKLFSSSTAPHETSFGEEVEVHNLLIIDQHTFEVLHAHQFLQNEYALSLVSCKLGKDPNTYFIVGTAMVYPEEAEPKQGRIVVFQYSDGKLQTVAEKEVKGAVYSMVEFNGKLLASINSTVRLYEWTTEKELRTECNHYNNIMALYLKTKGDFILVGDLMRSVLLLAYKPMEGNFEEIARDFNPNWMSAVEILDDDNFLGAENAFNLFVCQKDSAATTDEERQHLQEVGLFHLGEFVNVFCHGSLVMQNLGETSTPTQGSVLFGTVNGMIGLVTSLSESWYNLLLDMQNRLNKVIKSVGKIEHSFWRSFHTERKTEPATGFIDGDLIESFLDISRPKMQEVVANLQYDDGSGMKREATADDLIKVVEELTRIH
Description: GSPT1 protein levels by Western Blot analysis. It is filed as cell-based. The note with it: DMSO = 100.00; for remaining activity at 0.1 µM: 100 nM compound concentration; for remaining activity at 1 µM: 1 μM compound concentration. The method, boiled down:
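Molm-13 AML cells in RPMI 1640 with 10% FBS, about 10^6 cells/mL, treated with compound or DMSO for 6-8 h. RIPA whole-cell lysates resolved by SDS-PAGE, blotted and probed for GSPT1 with β-actin reference; IRDye secondary antibodies quantified by LI-COR Odyssey infrared imaging.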

The test system of a further test is IL-2. Description: anti-CD3-induced IL-2 secretion in PBMCs. It is filed as cell-based. The note with it: Homo sapiens, PBMC; compound concentration 1 μM; anti-CD3 stimulated PBMCs, 24 h; DMSO = 1.0; read-out: Fold Change IL-2. The method, boiled down:
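PBMCs stimulated on plates coated with 1 ug/mL anti-CD3 (OKT3), with compound or DMSO, 24 h. Supernatant IL-2 measured by Mesoscale; activity expressed as fold difference from DMSO-stimulated control.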

The test system of another test is H1048 cells. Description: H1048 cell viability (CellTiter-Glo). The note with it: Homo sapiens, NCI-H1048, 72 h, H1048, 3 days, DMSO = 100.00; for viability at 1 µM: 1 μM compound concentration; for viability at 10 µM: 10 μM compound concentration. Format: cell-based. The method, boiled down:
as §1

`Cc1ccc(NC(=O)NCc2scc3c2CN([C@H]2CCCC(=O)NC2=O)C3=O)cc1C(C)C` [Compound 42, (S)-1-((5-(2,7-Dioxoazepan-3-yl)-4-oxo-5,6-dihydro-4H-thieno[3,4-c]pyrrol-1-yl)methyl)-3-(3-isopropyl-4-methylphenyl)urea]: the values for the viability at 1 µM with MDA-MB-231 cells and with H1048 cells were 57.6% and 8.7%, respectively. Moreover, the viability at 10 µM was found to be 30.5% in the test on MDA-MB-231 cells and 8.68% in the test on H1048 cells. Besides, in the test on Molm-13 cells (compound concentration 0.8 μM), the cytotoxicity at 0.8 µM was found to be 50%. Besides, the inhibition at 1 µM with IL-1β turned out to be 91%; with IL-6 it was 97%; in the test with TNF-α it was 90%. The molecule also had a remaining activity at 0.1 µM on GSPT1 of 50.7%. For the same molecule, the remaining activity at 1 µM at GSPT1 came out at 8.44%. Also, the fold induction at 1 µM with IL-2 came out at 0.4.

Take `Cc1c(Cl)cc(NC(=O)NCc2scc3c2CN([C@H]2CCCC(=O)NC2=O)C3=O)cc1C(C)C` [Compound 43, (S)-1-(3-Chloro-5-isopropyl-4-methylphenyl)-3-((5-(2,7-dioxoazepan-3-yl)-4-oxo-5,6-dihydro-4H-thieno[3,4-c]pyrrol-1-yl)methyl)urea]: the viability at 1 µM in the test with MDA-MB-231 cells came to 55.2%; in the test with H1048 cells it was 7.97%. Besides, the viability at 10 µM turned out to be 23.7% in the test with MDA-MB-231 cells and 7.63% with H1048 cells. Moreover, in the test on Molm-13 cells (compound concentration 10 μM), the cytotoxicity at 10 µM came out at 100%. In addition, the inhibition at 1 µM in the test on IL-1β turned out to be 73%; with IL-6 it was 88%; in the test with TNF-α, 77%. Besides, the remaining activity at 0.1 µM on GSPT1 worked out at 56%. Moreover, at GSPT1, the remaining activity at 1 µM stood at 14.2%. Moreover, the fold induction at 1 µM with IL-2 was 0.5.

As for `Cc1ccc(CNC(=O)NCc2cc3c(s2)C(=O)N(C2CCC(=O)NC2=O)C3)cc1Cl` (stereo not drawn) [Compound 44, 1-(3-Chloro-4-methylbenzyl)-3-((5-(2,6-dioxopiperidin-3-yl)-6-oxo-5,6-dihydro-4H-thieno[2,3-c]pyrrol-2-yl)methyl)urea], the viability at 1 µM in the test on MDA-MB-231 cells was 64.6%; in the test on H1048 cells, 13.8%. For the same molecule, the results for the viability at 10 µM in the test on MDA-MB-231 cells and with H1048 cells were 56.5% and 14.3%, respectively. The cytotoxicity at 0.1 µM in the test on Molm-13 cells (compound concentration 0.1 μM) is 50%. Also, the inhibition at 1 µM with IL-1β stood at 45%; in the test with IL-6, 6%; in the test on TNF-α, 41%. This molecule also showed a remaining activity at 0.1 µM at GSPT1 of 57.3%. Further, the remaining activity at 1 µM on GSPT1 turned out to be 53.6%. Also, the fold induction at 1 µM in the test on IL-2 stood at 1.
